Literature values in patent US20080268045A1, “SUSTAINED RELEASE METHOTREXATE FORMULATIONS AND METHODS OF USE THEREOF” (Proprius Pharmaceuticals, Inc., priority 2006, published 2008).

- Bioavailability of orally dosed methotrexate (higher dose strength (10-15 mg/dose)): 30-40%
- Bioavailability of orally administered methotrexate (lower dose strength): ≤ 60%
SMILES: CN(Cc1cnc2nc(N)nc(N)c2n1)c1ccc(C(=O)N[C@@H](CCC(=O)O)C(=O)O)cc1 [methotrexate]
